PubChem BioAssay (NCI)
Where “and” joins values, the source holds several entries; their conditions need not be identical. Equal values may be shown once.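 Where inhibition never reached the appropriate level, the endpoint shown equals the highest concentration tested. Otherwise, values were interpolated linearly from a five-concentration, 48-hour dose response in 96-well plates. At the GI50, growth is halved. Definition used: TGI = concentration required for complete inhibition of growth.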

Assays:
Assay in all cases: growth of human tumour cells (NCI), 48 h
[1] = tested on: A549 NSCLC
[2] = tested on: SF-268 CNS
[3] = tested on: UACC-257 melanoma
[4] = tested on: HCT-15 colon
[5] = tested on: RPMI-8226 leukemia
[6] = tested on: HS 578T breast
[7] = tested on: SK-OV-3 ovarian
[8] = tested on: SN12C renal
[9] = tested on: OVCAR-8 ovarian
[10] = tested on: HOP-62 NSCLC

SMILES | GI50 [1] | TGI [1] | GI50 [2] | TGI [2] | GI50 [3] | TGI [3] | GI50 [4] | TGI [4] | GI50 [5] | TGI [5] [µM] | GI50 [6] | TGI [6] | GI50 [7] | TGI [7] | GI50 [8] | TGI [8] | GI50 [9] | TGI [9] | GI50 [10] | TGI [10]
O=C1NC(=O)[C@@H](c2cn3c4c(cccc24)CCC3)[C@@H]1c1c[nH]c2ccccc12 | 0.617 µM and 0.516 µM | > 10 µM and 16.4 µM | 1.32 µM and 0.911 µM | > 10 µM and 17.5 µM | 0.712 µM and 2.51 µM | > 10 µM and 29.8 µM | 0.338 µM and 0.505 µM | > 10 µM and 14.9 µM | 0.379 µM and 2.93 µM | > 93.5 | 0.343 µM and 0.323 µM | > 10 µM and 20.9 µM | 0.48 µM and 0.372 µM | > 10 µM and 12.2 µM | 0.556 µM and 0.888 µM | > 10 µM and 15.9 µM | 0.492 µM and 0.561 µM | > 10 µM and 14.3 µM | 0.423 µM and 0.465 µM | > 10 µM and 16.8 µM
Clc1ccc(Nc2ccnc(NCCNc3ccnc4cc(Cl)ccc34)n2)cc1 | 1.53 µM | 3.1 µM | 1.45 µM | 2.82 µM | 1.68 µM | 3.17 µM | 1.03 µM | 2.36 µM | 1.38 µM | 3.73 | 1.83 µM | 4.38 µM | 1.44 µM | 2.76 µM | 1.51 µM | 3.47 µM | 1.59 µM | 3.37 µM | 1.27 µM | 2.66 µM
O=C1NC(=O)C2=C1CCC2O (configuration not stated) | – | > 100 µM | – | > 100 µM | – | > 100 µM | – | > 100 µM | – | > 100 | – | > 100 µM | – | > 100 µM | – | > 100 µM | – | > 100 µM | – | > 100 µM
O=C1C(Cl)=C(Oc2ccccc2)C(=O)c2ccccc21 | 21 µM | 51.8 µM | 5.37 µM | 18.7 µM | 4.65 µM | 14.1 µM | 12.1 µM | 31.5 µM | 2.69 µM | 11.4 | 2.62 µM | 13 µM | 6.51 µM | 23.6 µM | 11.2 µM | 29.5 µM | 14.3 µM | 36.8 µM | 8.55 µM | 22.2 µM
CCNCCNc1cc(-c2ccc(Cl)cc2)c(C#N)c2nc3ccccc3n12 | 1.92 µM | 3.62 µM | 1.54 µM | 3 µM | 2.18 µM | 3.92 µM | 1.25 µM | 2.64 µM | 2.3 µM | 4.92 | 2.2 µM | 4.68 µM | 1.85 µM | 3.47 µM | 1.89 µM | 3.85 µM | – | – | 2.37 µM | 5.4 µM
COc1ccc(/C=C\c2cc(OC)c(OC)c(OC)c2)cc1NC(=O)[C@@H](N)CO | 0.0295 µM | > 100 µM | 0.0462 µM | > 100 µM | 27.1 µM | > 100 µM | 0.0165 µM | > 100 µM | 0.0276 µM | 20.8 | 0.0309 µM | > 100 µM | < 0.0124 µM | > 100 µM | 0.0468 µM | > 100 µM | 0.0328 µM | > 100 µM | 0.0267 µM | > 100 µM
C=C1C(=O)O[C@H]2[C@H]1CC/C(COC(=O)/C=C/c1cccnc1)=C\CC[C@@]1(C)O[C@@H]21 | 9.86 µM | 23.6 µM | 4.63 µM | 18.4 µM | 1.73 µM | 3.54 µM | 1.11 µM | 2.71 µM | 1.9 µM | 6.15 | 4.22 µM | 36 µM | 16.4 µM | 53 µM | 2.38 µM | 7.92 µM | 3.85 µM | 13.9 µM | 11.5 µM | 24.6 µM
O=P(Oc1ccccc1)(Oc1ccccc1)C(O)c1ccccc1 (configuration not stated) | > 100 µM | > 100 µM | > 100 µM | > 100 µM | 36.5 µM | > 100 µM | > 100 µM | > 100 µM | 33.3 µM | > 100 | 45.9 µM | > 100 µM | > 100 µM | > 100 µM | > 100 µM | > 100 µM | > 100 µM | > 100 µM | 39.3 µM | > 100 µM
Cc1c(C(=O)CCl)c(=O)n(-c2ccccc2)n1C | 11.6 µM | 27.4 µM | 5.47 µM | 19.7 µM | 2.58 µM | 16.3 µM | 3.59 µM | 15.5 µM | 1.07 µM | 4.62 | 0.922 µM | 5.52 µM | 16.4 µM | 74.5 µM | 5.93 µM | 28.6 µM | 3.85 µM | 28.3 µM | 11.5 µM | 27.3 µM
CC(=O)C(C(=N)C#N)C(=O)Nc1ccccc1 (configuration not stated) | – | > 100 µM | – | > 100 µM | – | > 100 µM | – | > 100 µM | – | > 100 | – | > 100 µM | – | > 100 µM | – | > 100 µM | – | > 100 µM | – | > 100 µM
COc1ccc(/C=C/C(=O)/C=C(/C=C/c2ccc(OC)c(OC)c2)OB(F)F)cc1OC | 2.24 µM | 7.62 µM | 2.42 µM | > 100 µM | 1.76 µM | 5.55 µM | 0.286 µM | 1.12 µM | 0.427 µM | 2.81 | 1.31 µM | 8.15 µM | 2.98 µM | 12.1 µM | – | – | 0.417 µM | > 100 µM | 2.46 µM | 7.05 µM
COc1cccc(-c2nc(-c3ccc(NS(=O)(=O)c4ccccc4)cc3)[nH]c2-c2ccnc(Br)c2)c1 | 3.11 µM | > 100 µM | 3.34 µM | > 100 µM | 3.11 µM | 30.3 µM | – | – | 2.49 µM | 8.31 | 1.71 µM | 5.17 µM | 3.04 µM | > 100 µM | 3.03 µM | > 100 µM | 3.33 µM | > 100 µM | 3.39 µM | > 100 µM
COc1cccc2c(Nc3ccc(C(=O)NCCNCCO)cc3)cc(-c3ccccc3)nc12 | > 100 µM | > 100 µM | – | – | 39 µM | > 100 µM | 12.2 µM | > 100 µM | 24.5 µM | 60.3 | 29.3 µM | > 100 µM | 86.7 µM | > 100 µM | 34.3 µM | > 100 µM | 42.2 µM | > 100 µM | 35.4 µM | > 100 µM
